Laboratory results taken from patent US6521265B1, “Method for applying a blood clotting agent” (Biolife, L.L.C., priority 2000, dated 2003).

System: blood flowing from an open wound
Experiment: Potassium ferrate used on blood flowing from an open wound
Conditions: in vivo
Description: The apparent chemical ferrate reaction with water found in blood is as follows:
As provided by the above compounds, a method of arresting blood and body fluid flow from an open skin wound is provided. An effective amount of any of the above salt ferrates, and preferably potassium ferrate in powder form, is applied directly onto the wound to interact with flowing blood or body fluid to accelerate its clotting.

potassium ferrate
clotting of blood flowing from an open wound: effectively accomplishes the accelerated clotting of blood
